The record followed here is publication PMC9758846, “Dinuclear and mononuclear metal(II) polypyridyl complexes against drug-sensitive and drug-resistant Plasmodium falciparum and their mode of action” (Malaria Journal, 2022).

For data set [1], the target named is Pf3D7 20S proteasome chymotrypsin-like (CT-L) site (Plasmodium falciparum, UniProt Q8IJT1). Put plainly: 20S proteasome inhibition assay using parasite lysate. It is filed as biochemical. The following applies: Suc-LLVY-AMC, 30 min. The method, then:
(§1) To harvest P. falciparum parasites, intraerythrocytic Pf3D7 and Pf5202 were collected in trophozoite and early schizont stages. Red blood cells were lysed in 0.15% (w/v) saponin lysis buffer for 10 min at 37 °C. After lysis, the parasite pellet was washed once with PBS buffer by centrifuging at 1600 rpm for 5 min. Saponin lysis buffer was added once again to remove all the red blood cells for 10 min at 37 °C, followed by washing with PBS twice and immediately used or kept at − 80 °C. To prepare parasite lysates for proteasome purification, parasite pellet was resuspended with 100 µl of pre-cooled Pierce™ RIPA buffer. A mild protein extraction method was used to prepare parasite extracts. The resuspended parasites were passed 20 times through a needle with a diameter of 0.4 mm in a syringe on ice to lyse the parasite. After 15 min centrifugation at 13,000 xg at 4 °C, the supernatant was removed. Protein concentration was determined by the Bradford assay. The activities of 3 proteolytic sites were determined by fluorescence assay using fluorogenic peptide substrates (Suc-LLVY-AMC for chymotrypsin-like, Boc-LRR-AMC for trypsin-like and Suc-LLE-AMC for caspase-like) Proteasome activities were determined by monitoring the substrate hydrolysis for 30 min at 37 °C with 340 nm excitation and 465 nm emission wavelength. Activity of each proteolytic site were calculated, and the IC50 values were determined from the non-linear regression analysis. VR23 proteasome inhibitor was used as positive control.

The target of data set [2] is Pf3D7 20S proteasome trypsin-like (T-L) site (Plasmodium falciparum, UniProt Q8I6T3). The data set is described as above. It is filed as biochemical. Particulars: Boc-LRR-AMC, 30 min. The procedure: as §1
Sequence of Pf3D7 20S proteasome trypsin-like (T-L) site (Q8I6T3 entry or part of it): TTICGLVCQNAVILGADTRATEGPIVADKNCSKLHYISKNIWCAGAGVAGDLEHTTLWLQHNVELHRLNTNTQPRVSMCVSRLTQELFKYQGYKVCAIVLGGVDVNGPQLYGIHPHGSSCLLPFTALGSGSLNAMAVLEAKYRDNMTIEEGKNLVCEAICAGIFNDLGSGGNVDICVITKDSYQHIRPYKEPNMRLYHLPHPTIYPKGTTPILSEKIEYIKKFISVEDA
Data set [3] concerns the target Pf3D7 20S proteasome caspase-like (C-L) site (Plasmodium falciparum, UniProt Q8I0U7). The data set is described as above. It is filed as biochemical. Particulars: Suc-LLE-AMC, 30 min. The method, then: as §1
For data set [4], the target named is Pf5202 20S proteasome trypsin-like (T-L) site (Plasmodium falciparum, UniProt Q8I6T3). Described as above. The format is biochemical. The following applies: for IC50: parasite lysate, Boc-LRR-AMC, 30 min; for Factor by which T-L site of Pf5202 is inhibited better than that of Pf3D7: ratio of T-L IC50 values. The procedure: as §1
Sequence of Pf5202 20S proteasome trypsin-like (T-L) site (Q8I6T3 entry or part of it): as above
The target in data set [5] is Pf5202 20S proteasome chymotrypsin-like (CT-L) site (Plasmodium falciparum, UniProt Q8IJT1). The description is as above. The format is biochemical. Particulars: Suc-LLVY-AMC, 30 min. The procedure:
as §1

In data set [6] the target is Pf5202 20S proteasome caspase-like (C-L) site (Plasmodium falciparum, UniProt Q8I0U7). The description is as above. It is filed as biochemical. The following applies: Suc-LLE-AMC, 30 min. The procedure:
as §1

The nature of data set [7]: Solution stability by molar conductivity and visible absorptivity. The following applies: 24, 48 and 72 h; room temperature. The format is physicochemical. The procedure:
Series of 10 mM stock solutions were prepared by dissolving the compounds in their respective solvents: phen and 4,4′-bipy in 95% ethanol; Cu(NO3)2·3H2O, Zn(NO3)2·6H2O, (1) and (2) in double distilled water; (3) and (4) in DMSO. All the stock solutions were further diluted with double distilled water to obtain 10 mL of 30 µM, 1 mM and 5 mM for their respective studies, viz. 30 µM for ultraviolet spectral studies, 1 mM for conductivity measurement and 5 mM for visible spectral studies. For the water-DMSO solutions of both complexes (3) and (4), the 30 µM, 1 mM and 5 mM solutions have […], 10% DMSO and 50% DMSO respectively. The absorbance at λmax and conductance were of the aqueous solutions were measured at 0, 24, 48 and 72 h. The molar absorptivity and molar conductivity of the metal(II) complex solutions and their precursors were then calculated.

A value given as a limit tells only on which side of the number the result lay.

Sequence of Pf3D7 20S proteasome caspase-like (C-L) site (Q8I6T3 entry or part of it): as above
Sequence of Pf3D7 20S proteasome caspase-like (C-L) site (Q8I0U7 entry or part of it): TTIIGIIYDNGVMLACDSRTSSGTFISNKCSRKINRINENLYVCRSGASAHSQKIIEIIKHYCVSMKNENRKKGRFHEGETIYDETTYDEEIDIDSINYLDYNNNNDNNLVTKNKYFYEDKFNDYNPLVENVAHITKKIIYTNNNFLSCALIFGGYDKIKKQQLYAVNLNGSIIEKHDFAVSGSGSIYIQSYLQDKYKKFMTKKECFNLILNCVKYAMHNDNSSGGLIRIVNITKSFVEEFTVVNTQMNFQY
Sequence of Pf5202 20S proteasome caspase-like (C-L) site (Q8I0U7 entry or part of it): as above
Sequence of Pf5202 20S proteasome caspase-like (C-L) site (Q8I6T3 entry or part of it, further chain): as the sequence (Q8I6T3 entry or part of it) above
Sequence of Pf3D7 20S proteasome chymotrypsin-like (CT-L) site (Q8IJT1 entry or part of it): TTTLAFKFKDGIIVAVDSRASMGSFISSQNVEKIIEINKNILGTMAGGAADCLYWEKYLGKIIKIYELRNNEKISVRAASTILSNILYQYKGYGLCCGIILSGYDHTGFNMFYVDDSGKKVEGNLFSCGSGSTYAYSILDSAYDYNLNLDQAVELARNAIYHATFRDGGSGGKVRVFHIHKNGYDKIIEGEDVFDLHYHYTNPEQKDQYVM
Sequence of Pf5202 20S proteasome chymotrypsin-like (CT-L) site (Q8IJT1 entry or part of it): as above

For `O.O=[N+]([O-])[O-].O=[N+]([O-])[O-].[Cu+2].c1cnc2c(c1)ccc1cccnc12.c1cnc2c(c1)ccc1cccnc12` [Complex 1, [Cu(phen)2](NO3)2·H2O], the 50% inhibitory concentration (IC50) (in general, the concentration at which inhibition is half-maximal) is above 25 µM in data set [1]; 2.39 ± 0.13 µM in data set [2]; above 25 µM in data set [3]; 1.62 ± 0.3 µM in data set [4]; above 25 µM in data set [5]; above 25 µM in data set [6]. Also, in data set [4], the “Factor by which T-L site of Pf5202 is inhibited better than that of Pf3D7” value is on record as “about 1.5 ×”. Also, the “Stability of aqueous solution (molar conductivity; for (1) also visible molar absorptivity)” value in data set [7] is reported as “remains practically unchanged”.

With “[Cu(phen)(NO3)(H2O)-4,4′-bipy-Cu(phen)(NO3)(H2O)](NO3)2 [Complex 3]”, the concentration for half-maximal inhibition (IC50) is above 25 µM in data set [1]; 2.64 ± 0.35 µM in data set [2]; above 25 µM in data set [3]; 1.72 ± 0.13 µM in data set [4]; above 25 µM in data set [5]; above 25 µM in data set [6]. The “Factor by which T-L site of Pf5202 is inhibited better than that of Pf3D7” value in data set [4] is on record as “about 1.5 ×”.
